Assay results from US20240091203A1, “METHODS FOR TREATING NON-OBSTRUCTIVE HYPERTROPHIC CARDIOMYOPATHY” (Cytokinetics, Incorporated, priority 2022, published 2024).
Entries after “also recorded” stand apart in the source; their conditions may differ.

Assays:
Type in all cases: in vivo, human
[1] = tested on: patients with symptomatic non-obstructive HCM (nHCM) or HCM with MVO; test: Phase 2 trial (Example 2): echocardiography (LVEF, diastolic function)
Procedure: Echocardiograms obtained on day 1 of treatment, at weeks 2, 4, 6, and 10 of treatment, and two weeks after the last dose were analyzed for several key structural and physiologic metrics; measurements of N-terminal prohormone of brain natriuretic peptide (NT-proBNP), and cardiac troponin I were also monitored. Ambulatory cardiac monitoring was conducted one week before day 1 of treatment and at week 9.
The secondary PD endpoints of the study were: Slope of the relationship of the plasma concentration of CK-3773274 to the change from baseline in the resting LVEF.
Echocardiography parameters were evaluated by the core laboratory at baseline and during treatment at the Weeks 2, 4, 6, and 10 and after a 2-week washout at Week 12 (follow-up visit).
The exploratory PD endpoints included but were not limited to: (i) The relationship of plasma concentration ranges of CK-3773274 to LVEF, LVFS, global longitudinal strain (GLS); (ii) Observed values and change from baseline in the echocardiography parameters described in Table 13 and evaluated by the core laboratory during treatment at Weeks 2, 4, 6, 10, and 12; (iii) Change in NT-proBNP from baseline to Week 10; (iv) Change in hs-cTnI from baseline to Week 10; (v) Proportion of patients with LVEF ≥50% and ≥50% reduction from baseline NT-proBNP.

[2] = tested on: patients with symptomatic non-obstructive HCM (nHCM) or HCM with MVO; test: Phase 2 trial (Example 2): exploratory responder analysis in subgroups
Procedure: An exploratory responder analysis was performed to consider treatment effect in certain subgroups of patients.

[3] = Phase 1 plasma pharmacokinetics, single-ascending dose (SAD) cohorts; settings: for AUC24 / Cmax / AUCinf / CL/F / t1/2 / Tmax: SAD; for CL/F / t1/2: mean ± SD; for Tmax: median (range)
Procedure: Single-ascending dose (SAD) cohorts. The SAD portion of the study used a randomized, double-blind, placebo-controlled, sequential, escalating-dose design, in which participants received single-ascending oral doses of the study drug. Seven cohorts were dosed in sequence (FIG. 2).
Pharmacokinetic analyses. For all study groups, blood samples for PK assessment were obtained pre-dose, up to 12 times daily on day 1, and then at regular intervals throughout the study. Blood samples were collected according to the following schedule: SAD Cohorts: Day 1: pre-dose and 0.25, 0.5, 1, 1.5, 2, 2.5, 3, 4, 6, 8, 12, 16, 24, 36, 48, 72, 96, and 216 h post dose. MAD Cohorts (14-day Dosing): Day 1: pre-dose and 0.25, 0.5, 1, 1.5, 2, 2.5, 3, 4, 6, 8, and 12 h post dose; Days 2, 4, 5, 6, and 9: pre-dose (corresponding to trough samples following dosing on days 1, 3, 4, 5, and 8) and 1.5 h post dose; Days 3, 7, 8, 10, 11, 12, and 13: pre-dose (corresponding to trough samples following dosing on days 2, 6, 7, 9, 10, 11, and 12); Day 14: pre-dose and 0.25, 0.5, 1.5, 2, 2.5, 3, 4, 6, 8, 12, 16, 24, 36, 48, 72, and 168 h post dose. MAD Cohort (17-Day Dosing): Day 1: pre-dose and 0.25, 0.5, 1, 1.5, 2, 2.5, 3, 4, 6, 8, and 12 h post dose; Days 2, 4, 5, 6, and 9: pre-dose (corresponding to trough samples following dosing on days 1, 3, 4, 5, and 8) and 1.5 h post dose; Days 3, 7, 8, 10, 11, 12, 13, 14, 15, and 16: pre-dose (corresponding to trough samples following dosing on days 2, 6, 7, 9, 10, 11, and 12); Day 17: pre-dose and 0.25, 0.5, 1.5, 2, 2.5, 3, 5, 7, 9, 12, 24, 36, 48, 72, and 168 h post dose. CYPD6-PM Cohort: Day 1: pre-dose and 0.25, 0.5, 1, 1.5, 2, 2.5, 3, 4, 6, 8, 12, 16, 24, 36, 48, 72, 96, 216, 312, and 552 h post dose. Food-Effect Cohort: Day 1: pre-dose and 0.25, 0.5, 1, 1.5, 2, 2.5, 3, 4, 6, 8, 12, 16, 24, 36, 48, 72, 96, 144, and 216 h post dose. Standard non-compartmental methods were used to calculate PK parameters using Phoenix® WinNonlin® Version 7.0; actual sample collection times were utilized.
Statistical Analysis. The sample size chosen for this study was based upon precedent set by other first-in-human PK studies of similar nature and was not based on power calculations. […] All participants who received ≥1 dose of the study drug and had ≥1 evaluable PK plasma profile were included in the PK analysis set. […]

[4] = single oral 1 mg, geometric mean (geometric CV %), n = 6
[5] = single oral 3 mg, geometric mean (geometric CV %), n = 6
[6] = single oral 25 mg, geometric mean (geometric CV %), n = 6
[7] = single oral 40 mg, geometric mean (geometric CV %), n = 6
[8] = single oral 50 mg, geometric mean (geometric CV %), n = 11

**Q.** Which results are given for `CCc1nc(-c2ccc3c(c2)CC[C@H]3NC(=O)c2cnn(C)c2)no1` [aficamten, (R)—N-(5-(5-ethyl-1,2,4-oxadiazol-3-yl)-2,3-dihydro-1H-inden-1-yl)-1-methyl-1H-pyrazole-4-carboxamide]?
**A.** Doppler measures of diastolic function (lateral e′; lateral E/e′; septal E/e′) ([1]; baseline to week 10, second interim): generally improved; change in LVEF from baseline to Week 10 ([1]; second interim, N = 41): −5.5%; responder analysis: treatment effect in other subgroups ([2]; beta-blockers or not, elevated TnI or E/e′ or not, genetic or family history of HCM or not): Consistent treatment effects; responder analysis: treatment effect by BMI ([2]; patients with BMI ≥30 compared to BMI <30): potential differential treatment effect; maximum time to maximum observed concentration across all participants ([3]; SAD cohorts): 4.0 h; AUC24 [3, 4]: 50 (20) ng · h/ml; Cmax [3, 4]: 5.8 (38.4) ng/ml; AUCinf ([3]; single oral 3 mg, geometric mean (geometric CV %), n = 5): 823 (61) ng · h/ml; AUC24 [3, 5]: 174 (27) ng · h/ml; Cmax [3, 5]: 26.1 (82.4) ng/ml; CL/F ([3]; single oral 3 mg, n = 5): 4.2 ± 3.1 L/h; t1/2 ([3]; single oral 3 mg, n = 5): 75.1 ± 21.8 h; Tmax ([3]; single oral 3 mg, n = 6): 1.3 (0.5, 2.6) h; AUC24 ([3]; single oral 10 mg (extensive metabolizers), geometric mean (geometric CV %), n = 6): 679 ng·h/mL; t1/2 ([3]; single oral 10 mg (extensive metabolizers), n = 4): 84.7 ± 17.7 h; AUCinf ([3]; single oral 10 mg, geometric mean (geometric CV %), n = 4): 3,434 (24) ng · h/ml; Cmax ([3]; single oral 10 mg, geometric mean (geometric CV %), n = 6): 70.5 (69.0) ng/ml; CL/F ([3]; single oral 10 mg, n = 4): 3.0 ± 0.7 L/h; Tmax ([3]; single oral 10 mg, n = 6): 2.8 (0.5, 3.0) h; AUC24 [3, 6]: 1,493 (15) ng · h/ml; AUCinf [3, 6]: 7,113 (15) ng · h/ml; Cmax [3, 6]: 192.6 (23.3) ng/ml; CL/F ([3]; single oral 25 mg, n = 6): 3.6 ± 0.5 L/h; Tmax ([3]; single oral 25 mg, n = 6): 1.8 (0.5, 4.0) h; AUCinf ([3]; single oral 40 mg, geometric mean (geometric CV %), n = 5): 11,860 (20) ng · h/ml; AUC24 [3, 7]: 2,532 (13) ng · h/ml; Cmax [3, 7]: 383.2 (67.9) ng/ml; t1/2 ([3]; single oral 40 mg, n = 4): 79.2 ± 18.5 h; CL/F ([3]; single oral 40 mg, n = 5): 3.4 ± 0.6 L/h; AUCinf ([3]; single oral 50 mg, geometric mean (geometric CV %), n = 9): 13,740 (35) ng · h/ml; AUC24 [3, 8]: 2,833 (26) ng · h/ml; Cmax [3, 8]: 359.4 (38.9) ng/ml; CL/F ([3]; single oral 50 mg, n = 9): 3.8 ± 1.1 L/h; t1/2 ([3]; single oral 50 mg, n = 9): 80.4 ± 14.9 h; Tmax ([3]; single oral 50 mg, n = 11): 1.0 (0.5, 2.5) h; Tmax ([3]; single oral 75 mg, n = 1): 0.5 (0.5, 0.5) h; AUC24 ([3]; single oral 75 mg, n = 1): 4,556 (—) ng · h/ml; Cmax ([3]; single oral 75 mg, n = 1): 1,220 (—) ng/ml; dose proportionality of Cmax and exposure (AUC24) ([3]; single oral doses between 1 mg and 50 mg): dose-proportional; also recorded: linear kinetics
